{
  "source": "patent US11117900B2",
  "about": "(Vertex Pharmaceuticals Incorporated, priority 2012, dated 2021)",
  "data": [
    {"test_system": "HCT116 colorectal cancer cells", "test": "Cisplatin sensitization assay (96 h MTS cell viability);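 note: compound concentration needed to lower the IC50 of Cisplatin alone by a set fold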", "assay_type": "cell-based", "settings": "Cisplatin sensitization value", "summary_of_the_method": "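The MTS viability read, after 1 h with reagent, followed 96 h of co-treatment at 37° C. in 5% CO2. Both compound and cisplatin were titrated 2-fold from a 10 μM top final concentration in a complete concentration matrix on HCT116 cells. Scores +++/++/+ reflect cisplatin sensitization value ranges.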", "values": [
      {"smiles": "Nc1nn2cc(F)cnc2c1C(=O)Nc1cnccc1O[C@H]1CN2CCC1CC2", "note": "[I-O-5, (R)-2-amino-6-fluoro-N-(4-(quinuclidin-3-yloxy)pyridin-3-yl)pyrazolo[1,5-a]pyrimidine-3-carboxamide]", "Cisplatin Sensitization Assay": "+++ (Compounds with a Cisplatin sensitization value of <0.02 μM are marked with “+++.”)"},
      {"smiles": "CN1CCC(Oc2ccncc2NC(=O)c2c(N)nn3cc(Cl)cnc23)CC1", "note": "[I-O-64, 2-amino-6-chloro-N-(4-((1-methylpiperidin-4-yl)oxy)pyridin-3-yl)pyrazolo[1,5-a]pyrimidine-3-carboxamide]", "Cisplatin Sensitization Assay": "+++ (Compounds with a Cisplatin sensitization value of <0.02 μM are marked with “+++.”)"},
      {"smiles": "CC(=O)N1CCCC12CCN(c1ccncc1NC(=O)c1c(N)nn3cc(F)cnc13)CC2", "note": "[I-N-262, N-(4-(1-acetyl-1,8-diazaspiro[4.5]decan-8-yl)pyridin-3-yl)-2-amino-6-fluoropyrazolo[1,5-a]pyrimidine-3-carboxamide]", "Cisplatin Sensitization Assay": "+++ (Compounds with a Cisplatin sensitization value of <0.02 μM are marked with “+++.”)"},
      {"smiles": "Nc1nn2cc(F)cnc2c1C(=O)Nc1cnccc1OC1COC1", "note": "[I-O-92, 2-amino-6-fluoro-N-(4-(oxetan-3-yloxy)pyridin-3-yl)pyrazolo[1,5-a]pyrimidine-3-carboxamide]", "Cisplatin Sensitization Assay": "+++ (Compounds with a Cisplatin sensitization value of <0.02 μM are marked with “+++.”)"},
      {"smiles": "Cc1ncn(C)c1-c1ccncc1NC(=O)c1c(N)nn2cc(F)cnc12", "note": "[I-C-78, 2-amino-N-(4-(1,4-dimethyl-1H-imidazol-5-yl)pyridin-3-yl)-6-fluoropyrazolo[1,5-a]pyrimidine-3-carboxamide]", "Cisplatin Sensitization Assay": "++ (Compounds with a Cisplatin sensitization value >0.02 μM but <0.2 μM are marked with “++.”)"},
      {"smiles": "Cc1nnccc1-c1ccncc1NC(=O)c1c(N)nn2cc(F)cnc12", "note": "[I-C-31, 2-amino-6-fluoro-N-(4-(3-methylpyridazin-4-yl)pyridin-3-yl)pyrazolo[1,5-a]pyrimidine-3-carboxamide]", "Cisplatin Sensitization Assay": "+++ (Compounds with a Cisplatin sensitization value of <0.02 μM are marked with “+++.”)"},
      {"smiles": "Nc1nn2cc(F)cnc2c1C(=O)Nc1cncc(F)c1N1CCN2C(=O)CC[C@@H]2C1", "note": "[I-N-182, (R)-2-amino-6-fluoro-N-(5-fluoro-4-(6-oxohexahydropyrrolo[1,2-a]pyrazin-2(1H)-yl)pyridin-3-yl)pyrazolo[1,5-a]pyrimidine-3-carboxamide]", "Cisplatin Sensitization Assay": "++ (Compounds with a Cisplatin sensitization value >0.02 μM but <0.2 μM are marked with “++.”)"},
      {"smiles": "CN1CC(N2CCN(C(=O)C3CCN(c4c(F)cncc4NC(=O)c4c(N)nn5cc(F)cnc45)CC3)CC2)C1", "note": "[I-G-96, 2-amino-6-fluoro-N-(5-fluoro-4-(4-(4-(1-methylazetidin-3-yl)piperazine-1-carbonyl)piperidin-1-yl)pyridin-3-yl)pyrazolo[1,5-a]pyrimidine-3-carboxamide]", "Cisplatin Sensitization Assay": "+++ (Compounds with a Cisplatin sensitization value of <0.02 μM are marked with “+++.”)"},
      {"smiles": "CNC1CCN(c2ccncc2NC(=O)c2c(N)nn3cc(Cl)cnc23)CC1", "note": "[I-N-87, 2-amino-6-chloro-N-(4-(4-(methylamino)piperidin-1-yl)pyridin-3-yl)pyrazolo[1,5-a]pyrimidine-3-carboxamide]", "Cisplatin Sensitization Assay": "++ (Compounds with a Cisplatin sensitization value >0.02 μM but <0.2 μM are marked with “++.”)"},
      {"smiles": "CN1CCN(c2c(F)cncc2NC(=O)c2c(N)nn3cc(F)cnc23)CC1=O", "note": "[I-N-212, 2-amino-6-fluoro-N-(5-fluoro-4-(4-methyl-3-oxopiperazin-1-yl)pyridin-3-yl)pyrazolo[1,5-a]pyrimidine-3-carboxamide]", "Cisplatin Sensitization Assay": "+++ (Compounds with a Cisplatin sensitization value of <0.02 μM are marked with “+++.”)"},
      {"smiles": "Nc1nn2cc(F)cnc2c1C(=O)Nc1cncc(F)c1N1CCC(C(=O)N2CC(N3CCCC3)C2)CC1", "note": "[I-G-43, 2-amino-6-fluoro-N-(5-fluoro-4-(4-(3-(pyrrolidin-1-yl)azetidine-1-carbonyl)piperidin-1-yl)pyridin-3-yl)pyrazolo[1,5-a]pyrimidine-3-carboxamide]", "Cisplatin Sensitization Assay": "+++ (Compounds with a Cisplatin sensitization value of <0.02 μM are marked with “+++.”)"},
      {"smiles": "Nc1nn2cc(Cl)cnc2c1C(=O)Nc1cnccc1N1CCN(C2COC2)CC1", "note": "[I-N-58, 2-amino-6-chloro-N-(4-(4-(oxetan-3-yl)piperazin-1-yl)pyridin-3-yl)pyrazolo[1,5-a]pyrimidine-3-carboxamide]", "Cisplatin Sensitization Assay": "++ (Compounds with a Cisplatin sensitization value >0.02 μM but <0.2 μM are marked with “++.”)"},
      {"smiles": "Nc1nn2cc(Cl)cnc2c1C(=O)Nc1cnccc1N1CCn2cncc2C1", "note": "[I-N-75, 2-amino-6-chloro-N-(4-(5,6-dihydroimidazo[1,5-a]pyrazin-7(8H)-yl)pyridin-3-yl)pyrazolo[1,5-a]pyrimidine-3-carboxamide]", "Cisplatin Sensitization Assay": "+++ (Compounds with a Cisplatin sensitization value of <0.02 μM are marked with “+++.”)"},
      {"smiles": "Nc1nn2cc(F)cnc2c1C(=O)Nc1cncc(F)c1N1CCN(C(=O)CN2CCC2)CC1", "note": "[I-N-160, 2-amino-N-(4-(4-(2-(azetidin-1-yl)acetyl)piperazin-1-yl)-5-fluoropyridin-3-yl)-6-fluoropyrazolo[1,5-a]pyrimidine-3-carboxamide]", "Cisplatin Sensitization Assay": "+++ (Compounds with a Cisplatin sensitization value of <0.02 μM are marked with “+++.”)"},
      {"smiles": "Nc1nn2cc(F)cnc2c1C(=O)Nc1cncc(F)c1N1CCC(c2nccs2)CC1", "note": "[I-N-184, 2-amino-6-fluoro-N-(5-fluoro-4-(4-(thiazol-2-yl)piperidin-1-yl)pyridin-3-yl)pyrazolo[1,5-a]pyrimidine-3-carboxamide]", "Cisplatin Sensitization Assay": "++ (Compounds with a Cisplatin sensitization value >0.02 μM but <0.2 μM are marked with “++.”)"},
      {"smiles": "Nc1nn2cc(F)cnc2c1C(=O)Nc1cnccc1N1CCN2CCOC[C@@H]2C1", "note": "[I-N-115, (S)-2-amino-6-fluoro-N-(4-(hexahydropyrazino[2,1-c][1,4]oxazin-8(1H)-yl)pyridin-3-yl)pyrazolo[1,5-a]pyrimidine-3-carboxamide]", "Cisplatin Sensitization Assay": "+++ (Compounds with a Cisplatin sensitization value of <0.02 μM are marked with “+++.”)"},
      {"smiles": "Nc1nn2cc(F)cnc2c1C(=O)Nc1cnccc1N1CCCCCC1", "note": "[I-N-264, 2-amino-N-(4-(azepan-1-yl)pyridin-3-yl)-6-fluoropyrazolo[1,5-a]pyrimidine-3-carboxamide]", "Cisplatin Sensitization Assay": "+ (Compounds with a Cisplatin sensitization value >0.2 μM but <5 μM are marked with “+.”)"},
      {"smiles": "Nc1nn2cc(F)cnc2c1C(=O)Nc1cnccc1N1CCN(S(=O)(=O)C2CCOCC2)CC1", "note": "[I-N-177, 2-amino-6-fluoro-N-(4-(4-((tetrahydro-2H-pyran-4-yl)sulfonyl)piperazin-1-yl)pyridin-3-yl)pyrazolo[1,5-a]pyrimidine-3-carboxamide]", "Cisplatin Sensitization Assay": "+++ (Compounds with a Cisplatin sensitization value of <0.02 μM are marked with “+++.”)"},
      {"smiles": "Nc1nn2cc(Cl)cnc2c1C(=O)Nc1cnccc1OCCCO", "note": "[I-O-53, 2-amino-6-chloro-N-(4-(3-hydroxypropoxy)pyridin-3-yl)pyrazolo[1,5-a]pyrimidine-3-carboxamide]", "Cisplatin Sensitization Assay": "+++ (Compounds with a Cisplatin sensitization value of <0.02 μM are marked with “+++.”)"},
      {"smiles": "CS(=O)(=O)c1ccc(-c2ccncc2NC(=O)c2c(N)nn3cc(F)cnc23)cc1", "note": "[I-C-61, 2-amino-6-fluoro-N-(4-(4-(methylsulfonyl)phenyl)pyridin-3-yl)pyrazolo[1,5-a]pyrimidine-3-carboxamide]", "Cisplatin Sensitization Assay": "+++ (Compounds with a Cisplatin sensitization value of <0.02 μM are marked with “+++.”)"},
      {"smiles": "Nc1nn2cc(F)cnc2c1C(=O)Nc1cncc(Cl)c1N1CCC(C(=O)N2CCN3CCC2C3)CC1", "note": "(centres unmarked) [I-G-69, N-(4-(4-(1,4-diazabicyclo[3.2.1]octane-4-carbonyl)piperidin-1-yl)-5-chloropyridin-3-yl)-2-amino-6-fluoropyrazolo[1,5-a]pyrimidine-3-carboxamide]", "Cisplatin Sensitization Assay": "+++ (Compounds with a Cisplatin sensitization value of <0.02 μM are marked with “+++.”)"},
      {"smiles": "CN1CCC(N(C)S(=O)(=O)C2CCN(c3c(F)cncc3NC(=O)c3c(N)nn4cc(F)cnc34)CC2)CC1", "note": "[I-N-148, 2-amino-6-fluoro-N-(5-fluoro-4-(4-(N-methyl-N-(1-methylpiperidin-4-yl)sulfamoyl)piperidin-1-yl)pyridin-3-yl)pyrazolo[1,5-a]pyrimidine-3-carboxamide]", "Cisplatin Sensitization Assay": "+++ (Compounds with a Cisplatin sensitization value of <0.02 μM are marked with “+++.”)"},
      {"smiles": "CC1(N2CCN(C(=O)C3CCN(c4c(F)cncc4NC(=O)c4c(N)nn5cc(F)cnc45)CC3)CC2)COC1", "note": "[I-G-92, 2-amino-6-fluoro-N-(5-fluoro-4-(4-(4-(3-methyloxetan-3-yl)piperazine-1-carbonyl)piperidin-1-yl)pyridin-3-yl)pyrazolo[1,5-a]pyrimidine-3-carboxamide]", "Cisplatin Sensitization Assay": "+++ (Compounds with a Cisplatin sensitization value of <0.02 μM are marked with “+++.”)"},
      {"smiles": "CN1CCN(C(=O)[C@H]2CC[C@@H](Oc3ccncc3NC(=O)c3c(N)nn4cc(F)cnc34)CC2)CC1", "note": "[I-O-19, 2-amino-6-fluoro-N-(4-(((1s,4s)-4-(4-methylpiperazine-1-carbonyl)cyclohexyl)oxy)pyridin-3-yl)pyrazolo[1,5-a]pyrimidine-3-carboxamide]", "Cisplatin Sensitization Assay": "+++ (Compounds with a Cisplatin sensitization value of <0.02 μM are marked with “+++.”)"},
      {"smiles": "Cn1ccc2c(NC(=O)c3c(N)nn4cc(F)cnc34)cncc21", "note": "[I-C-74, 2-amino-6-fluoro-N-(1-methyl-1H-pyrrolo[2,3-c]pyridin-4-yl)pyrazolo[1,5-a]pyrimidine-3-carboxamide]", "Cisplatin Sensitization Assay": "+ (Compounds with a Cisplatin sensitization value >0.2 μM but <5 μM are marked with “+.”)"},
      {"smiles": "C[C@H]1CN(C2COC2)CCN1c1ccncc1NC(=O)c1c(N)nn2cc(F)cnc12", "note": "[I-N-24, (S)-2-amino-6-fluoro-N-(4-(2-methyl-4-(oxetan-3-yl)piperazin-1-yl)pyridin-3-yl)pyrazolo[1,5-a]pyrimidine-3-carboxamide]", "Cisplatin Sensitization Assay": "+++ (Compounds with a Cisplatin sensitization value of <0.02 μM are marked with “+++.”)"}
    ]}
  ]
}
